Results on 31 compounds are retold here after PMC3189771, “Structure–Activity Relationship of Halophenols as a New Class of Protein Tyrosine Kinase Inhibitors” (International Journal of Molecular Sciences, 2011).

SMILES strings stand for the structures.

The target of data set [1] is protein tyrosine kinase (PTK). The experiment in a line: in vitro PTK inhibitory activity by ELISA (brain cytoplasmic tyrosine kinase extract, PGT substrate). Format: biochemical, mouse. The note with it: genistein as positive control; for IC50: determined in triplicate. The protocol: After removal of the male mouse (SD) meninges, the brain was weighted and homogenized with a glass homogenizer in four volumes of cold medium (containing 20 mmol/L Tris–HCl, pH 7.5, 0.25 mol/L sucrose, 2 mmol/L DDT, 2 mmol/L EDTA, 2 mmol/L Na3VO4, 1 mmol/L DMSF, 215 mg/L aprotinin, 1 mg/L PTIFtatin, 5 mg/L leupeptin) at high speed. The mixture was centrifuged for 10 min at 1000 × g at 4 °C; the supernatant was collected and re-centrifuged for 10 min at 10,000 × g at 4 °C to obtain the target supernatant. The target supernatant that contained cytoplasmic tyrosine kinase was collected, separately packed and stored at −70 °C.
PTK activity was determined by the ELISA method. In brief, the concentrations of PTKs used to construct calibration curves were as follows: 600, 500, 341, 200 and 100 × 10^−7 U/mL for PTK. 100 μL of 20 mg/L PGT (Sigma Aldrich) in 20 mmol/L PBS solution was added to 96-well microtiter plates at 37 °C overnight. After removing excess substrate solution, PBS–Tween 20 (PBST) was used to wash the wells one time, which were dried for 2 h at 37 °C and kept at 4 °C. Subsequently, 50 μL of the above PTK extraction (50 mmol/L HEPES, pH 7.4, 20 mmol/L MgCl2, 0.1 mmol/L MnCl2, 0.2 mmol/L Na3VO4, 0.6 mmol/L ATP) was added to the 96-well plates. Then, a certain concentration of the tested compounds (10 μL) and tyrosine kinase tissue extract solution were incubated at 37 °C for 1 h. The plate was washed three times with PBST at the end of the treatment, and 100 μL of the diluted horseradish-peroxidase-labeled mouse anti-phosphotyrosine monoclonal antibody IgG2bk (Sigma Aldrich) was added to each well, and incubated at 37 °C for 30 min. After removal of the antibody complex, and then washing three times with PBST, 100 μL freshly prepared TMB horseradish peroxidase color development solution (Beijing 4A Biotech Co., Ltd, China) was added and protected from light for 10 min. The reaction was terminated by addition of 100 μL/well 1 N sulfuric acid. Absorbance was measured at 450 nm in a microplate reader (SpectraMax M5).
(In general: ELISA stands for enzyme-linked immunosorbent assay.)

In general, IC50 refers to the concentration that inhibits the measured activity by half. A higher IC50 goes with lower potency. What is called melting point is the temperature, or range, at which the solid turns liquid.

For `O=C(c1ccc(Cl)cc1)c1ccc(O)c(O)c1` [Compound 10c], the concentration for half-maximal inhibition (IC50) in data set [1] is 41.6 µM.

In the case of `O=C(c1ccc(O)c(O)c1)c1ccccc1F` [Compound 1c, 2-fluoro-3′,4′-dihydroxyl benzophenone], the melting point lay in the range of 149 to 150 °C. Further, in data set [1], the IC50 is greater than 50 µM.

With `Oc1ccc(Cc2ccc(Cl)cc2)cc1O` [Compound 10d], in data set [1], the “PTK inhibitory activity (in words)” value is “stronger activities than that of genistein” and the midpoint of inhibition, the IC50, lay at 6.97 µM.

On to `COc1ccc(C(=O)c2ccccc2I)cc1OC` [Compound 4a, 2-iodo-3′,4′-dimethoxyl benzophenone], for which the melting point lay in the range of 143 to 145 °C.

The compound `COc1ccc(C(=O)c2cccc(F)c2)cc1OC` [Compound 2a, 3-fluoro-3′,4′-dimethoxyl benzophenone] registered a melting point of 103 to 105 °C.

On to `Oc1ccc(Cc2c(Cl)c(O)c(O)c(O)c2Cl)cc1O` [Compound 6d], for which, in data set [1], the “PTK inhibitory activity (in words)” value is listed as “stronger activities than that of genistein” and the IC50 is 3.96 µM.

As to `Oc1ccc(Cc2ccccc2I)cc1O` [Compound 4d, 2-iodo-3′,4′-dihydroxyl diphenylmethane], the melting point is 130 to 132 °C. This compound also had an IC50 in data set [1] greater than 50 µM.

For the compound `O=C(c1ccc(O)c(O)c1)c1c(Br)c(O)c(O)c(O)c1Br` [Compound 5c], in data set [1], the “PTK inhibitory activity (in words)” value was “no activity” and the IC50 was greater than 50 µM.

In turn, `Oc1ccc(Cc2ccccc2F)cc1O` [Compound 1d, 2-fluoro-3′,4′-dihydroxyl diphenylmethane] returned a melting point of 91 to 92 °C. In data set [1], this compound gave an IC50 greater than 50 µM.

In data set [1], `O=c1c(-c2ccc(O)cc2)coc2cc(O)cc(O)c12` [Genistein, genistein, reference compound] registered an IC50 of 13.6 µM.

Turning to `Oc1cc(Br)c(Cc2cc(Br)ccc2O)cc1O` [Compound 13d], in data set [1], the “PTK inhibitory activity (in words)” value is listed as “stronger activities than that of genistein” and the IC50 came out at 5.05 µM.

The compound `O=C(c1ccc(O)c(O)c1)c1ccccc1I` [Compound 4c, 2-iodo-3′,4′-dihydroxyl benzophenone] displayed a melting point of 186 to 188 °C. In data set [1], the IC50 was greater than 50 µM.

As to `O=C(c1cccc(Cl)c1)c1ccc(O)c(O)c1` [Compound 9c], inhibition in data set [1] was half-maximal at 17.8 µM (IC50).

In data set [1], `Oc1cc(Cc2ccccc2)c(Br)c(Br)c1O` [Compound 12d] returned an IC50 greater than 50 µM.

Consider `COc1ccc(C(=O)c2ccc(F)cc2)cc1OC` [Compound 3a, 4-fluoro-3′,4′-dimethoxyl benzophenone], for which the melting point lay in the range of 101 to 103 °C.

Take `Oc1ccc(Cc2ccc(F)cc2)cc1O` [Compound 3d, 4-fluoro-3′,4′-dihydroxyl diphenylmethane]: the melting point was 59 to 61 °C. This compound also displayed an IC50 in data set [1] greater than 50 µM.

As for `O=C(c1cc(Br)ccc1O)c1cc(O)c(O)cc1Br` [Compound 13c], in data set [1], the “PTK inhibitory activity (in words)” value is “no activity” and the IC50 was greater than 50 µM.

Consider `O=C(c1ccccc1)c1cc(O)c(O)cc1Br` [Compound 11c], for which half-maximal inhibition in data set [1] (IC50) required 16 µM.

Consider `Oc1cc(Br)c(Cc2ccccc2)cc1O` [Compound 11d], for which, in data set [1], the “PTK inhibitory activity (in words)” value is on record as “stronger activities than that of genistein” and half-maximal inhibition (IC50) was put at 6.26 µM.

In data set [1], `Oc1ccc(Cc2ccccc2Cl)cc1O` [Compound 8d] came in with an IC50 of 14.8 µM.

`COc1ccc(C(=O)c2ccccc2F)cc1OC` [Compound 1a, 2-fluoro-3′,4′-dimethoxyl benzophenone] gave a melting point of 77 to 79 °C.

For `Oc1ccc(Cc2cccc(F)c2)cc1O` [Compound 2d, 3-fluoro-3′,4′-dihydroxyl diphenylmethane], the melting point is 66 to 68 °C. The compound further showed an IC50 in data set [1] greater than 50 µM.

`O=C(c1ccc(F)cc1)c1ccc(O)c(O)c1` [Compound 3c, 4-fluoro-3′,4′-dihydroxyl benzophenone] came in with a melting point of 155 to 157 °C. In data set [1], this compound showed an IC50 greater than 50 µM.

For `O=C(c1ccc(O)c(Br)c1)c1cc(O)c(O)cc1Br` [Compound 7c], in data set [1], the “PTK inhibitory activity (in words)” value is given as “no activity” and the IC50 is greater than 50 µM.

`O=C(c1ccc(O)c(O)c1)c1ccccc1Cl` [Compound 8c] came in with an IC50 in data set [1] of 17.7 µM.

Turning to `Oc1ccc(Cc2c(Br)c(O)c(O)c(O)c2Br)cc1O` [Compound 5d], in data set [1], the “PTK inhibitory activity (in words)” value is reported as “no activity” and the IC50 is greater than 50 µM.

On to `O=C(c1ccccc1)c1cc(O)c(O)c(Br)c1Br` [Compound 12c], for which the IC50 in data set [1] is greater than 50 µM.

Regarding `O=C(c1ccc(O)c(O)c1)c1c(Cl)c(O)c(O)c(O)c1Cl` [Compound 6c], in data set [1], the “PTK inhibitory activity (in words)” value is on record as “stronger activities than that of genistein” and the IC50 was 2.97 µM.

`Oc1cc(Br)c(Cc2ccc(O)c(Br)c2)cc1O` [Compound 7d]: in data set [1], the “PTK inhibitory activity (in words)” value is “stronger activities than that of genistein” and the IC50 was 6.34 µM.

In turn, `O=C(c1cccc(F)c1)c1ccc(O)c(O)c1` [Compound 2c, 3-fluoro-3′,4′-dihydroxyl benzophenone] came in with a melting point of 104 to 106 °C. In addition, the IC50 in data set [1] was greater than 50 µM.

Turning to `Oc1ccc(Cc2cccc(Cl)c2)cc1O` [Compound 9d], in data set [1], the “PTK inhibitory activity (in words)” value is “stronger activities than that of genistein” and the IC50 was 12.9 µM.
